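Growth conditions: 96-well plates. Treatment: test compound, 48 hours, 5 concentrations. Analysis: linear interpolation between bracketing concentrations; unreached endpoints set to highest concentration. TGI denotes the concentration required for complete inhibition of growth.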
Experiments:
Experiment in all cases: DTP human tumour cell line panel, 48 h
786-0 renal = tested on: 786-0 renal
A498 renal = tested on: A498 renal
A549 NSCLC = tested on: A549 NSCLC
ACHN renal = tested on: ACHN renal
BT-549 breast = tested on: BT-549 breast
CAKI-1 renal = tested on: CAKI-1 renal
COLO 205 colon = tested on: COLO 205 colon
DU-145 prostate = tested on: DU-145 prostate
EKVX NSCLC = tested on: EKVX NSCLC
HCC-2998 colon = tested on: HCC-2998 colon
HCT-15 colon = tested on: HCT-15 colon
HOP-62 NSCLC = tested on: HOP-62 NSCLC
HOP-92 NSCLC = tested on: HOP-92 NSCLC
HS 578T breast = tested on: HS 578T breast
HT29 colon = tested on: HT29 colon
IGROV1 ovarian = tested on: IGROV1 ovarian
K-562 leukemia = tested on: K-562 leukemia
LOX IMVI melanoma = tested on: LOX IMVI melanoma
M14 melanoma = tested on: M14 melanoma
MALME-3M melanoma = tested on: MALME-3M melanoma
MDA-MB-231 breast = tested on: MDA-MB-231 breast
MDA-MB-435 = tested on: MDA-MB-435
MDA-N = tested on: MDA-N
MOLT-4 leukemia = tested on: MOLT-4 leukemia
NCI-H226 lung = tested on: NCI-H226 lung
NCI-H23 lung = tested on: NCI-H23 lung
NCI-H460 lung = tested on: NCI-H460 lung
NCI-H522 lung = tested on: NCI-H522 lung
NCI/ADR-RES ovarian = tested on: NCI/ADR-RES ovarian
OVCAR-3 ovarian = tested on: OVCAR-3 ovarian
OVCAR-4 ovarian = tested on: OVCAR-4 ovarian
OVCAR-5 ovarian = tested on: OVCAR-5 ovarian
RPMI-8226 leukemia = tested on: RPMI-8226 leukemia
RXF 393 renal = tested on: RXF 393 renal
SF-268 CNS = tested on: SF-268 CNS
SF-295 CNS = tested on: SF-295 CNS
SF-539 CNS = tested on: SF-539 CNS
SK-MEL-2 melanoma = tested on: SK-MEL-2 melanoma
SK-MEL-28 melanoma = tested on: SK-MEL-28 melanoma
SK-MEL-5 melanoma = tested on: SK-MEL-5 melanoma
SK-OV-3 ovarian = tested on: SK-OV-3 ovarian
SN12C renal = tested on: SN12C renal
SNB-19 CNS = tested on: SNB-19 CNS
SNB-75 CNS = tested on: SNB-75 CNS
T-47D breast = tested on: T-47D breast
TK-10 renal = tested on: TK-10 renal
UACC-257 melanoma = tested on: UACC-257 melanoma
UO-31 renal = tested on: UO-31 renal
CCRF-CEM leukemia = tested on: CCRF-CEM leukemia
HCT-116 colon = tested on: HCT-116 colon
HL-60(TB) leukemia = tested on: HL-60(TB) leukemia
MCF7 breast = tested on: MCF7 breast
OVCAR-8 ovarian = tested on: OVCAR-8 ovarian
PC-3 prostate = tested on: PC-3 prostate
SR leukemia = tested on: SR leukemia
SW-620 colon = tested on: SW-620 colon
U251 CNS = tested on: U251 CNS
UACC-62 melanoma = tested on: UACC-62 melanoma
KM12 colon = tested on: KM12 colon

Measured: TGI

CC(=N/NC(=S)N1CCCCC1)/C(C)=N\NC(=S)N1CCCCC1
6.44 µM: MDA-N
3.07 µM: SK-MEL-5 melanoma
3.62 µM: COLO 205 colon
> 100 µM: LOX IMVI melanoma | MOLT-4 leukemia
2.92 µM: ACHN renal
4.65 µM: SK-MEL-2 melanoma
5.13 µM: RPMI-8226 leukemia
3.39 µM: OVCAR-3 ovarian
3.74 µM: SF-295 CNS
3.38 µM: BT-549 breast
3.79 µM: MDA-MB-435
4.74 µM: NCI-H522 lung
5.58 µM: SF-539 CNS
3.24 µM: TK-10 renal
2.86 µM: A498 renal
3.05 µM: DU-145 prostate
2.79 µM: UO-31 renal
4.82 µM: NCI-H23 lung
3 µM: NCI-H226 lung
3.6 µM: NCI-H460 lung
3.48 µM: HCC-2998 colon
3.61 µM: MALME-3M melanoma
3.54 µM: SNB-19 CNS
3.23 µM: CAKI-1 renal
3.1 µM: 786-0 renal
3.14 µM: SNB-75 CNS
3.82 µM: OVCAR-5 ovarian
3.99 µM: SK-MEL-28 melanoma
3.32 µM: SK-OV-3 ovarian
4.57 µM: M14 melanoma
5.63 µM: MDA-MB-231 breast
2.85 µM: HOP-92 NSCLC
3.13 µM: IGROV1 ovarian
3.51 µM: HOP-62 NSCLC
5.22 µM: NCI/ADR-RES ovarian
4.09 µM: UACC-257 melanoma
6.89 µM: K-562 leukemia
4.07 µM: HT29 colon
3.2 µM: RXF 393 renal | SN12C renal
5.31 µM: HCT-15 colon
4.04 µM: A549 NSCLC
3.11 µM: EKVX NSCLC
3.46 µM: OVCAR-4 ovarian
3.27 µM: T-47D breast
5.76 µM: HS 578T breast
3.45 µM: SF-268 CNS

N#Cc1nn(C2OC(COC(=O)c3ccccc3)C(OC(=O)c3ccccc3)C2OC(=O)c2ccccc2)c2nc[nH]c(=O)c12 (stereo not drawn)
84.7 µM: CCRF-CEM leukemia
> 100 µM: 786-0 renal | A549 NSCLC | ACHN renal | CAKI-1 renal | COLO 205 colon | DU-145 prostate | EKVX NSCLC | HCC-2998 colon | HCT-116 colon | HCT-15 colon | HOP-62 NSCLC | HS 578T breast | HT29 colon | IGROV1 ovarian | K-562 leukemia | M14 melanoma | MCF7 breast | MDA-MB-231 breast | MDA-MB-435 | MDA-N | NCI-H226 lung | NCI-H23 lung | NCI-H460 lung | NCI-H522 lung | NCI/ADR-RES ovarian | OVCAR-3 ovarian | OVCAR-4 ovarian | OVCAR-5 ovarian | OVCAR-8 ovarian | PC-3 prostate | RPMI-8226 leukemia | RXF 393 renal | SF-268 CNS | SF-295 CNS | SF-539 CNS | SK-MEL-2 melanoma | SK-MEL-28 melanoma | SK-OV-3 ovarian | SN12C renal | SNB-19 CNS | SNB-75 CNS | SW-620 colon | T-47D breast | TK-10 renal | U251 CNS | UACC-257 melanoma | UACC-62 melanoma | UO-31 renal
94.4 µM: SR leukemia
47.2 µM: A498 renal
83.4 µM: HL-60(TB) leukemia
95.4 µM: MOLT-4 leukemia
65.6 µM: SK-MEL-5 melanoma
90.4 µM: MALME-3M melanoma

CC(=O)Nc1ccc2oc(=O)c3ccccc3c2c1
> 100 µM: 786-0 renal | A498 renal | A549 NSCLC | ACHN renal | BT-549 breast | CAKI-1 renal | CCRF-CEM leukemia | COLO 205 colon | DU-145 prostate | EKVX NSCLC | HCC-2998 colon | HCT-116 colon | HCT-15 colon | HL-60(TB) leukemia | HOP-62 NSCLC | HOP-92 NSCLC | HS 578T breast | HT29 colon | IGROV1 ovarian | K-562 leukemia | KM12 colon | LOX IMVI melanoma | M14 melanoma | MALME-3M melanoma | MCF7 breast | MDA-MB-435 | MDA-N | MOLT-4 leukemia | NCI-H226 lung | NCI-H23 lung | NCI-H460 lung | NCI-H522 lung | NCI/ADR-RES ovarian | OVCAR-3 ovarian | OVCAR-4 ovarian | OVCAR-5 ovarian | OVCAR-8 ovarian | PC-3 prostate | RPMI-8226 leukemia | RXF 393 renal | SF-268 CNS | SF-295 CNS | SF-539 CNS | SK-MEL-2 melanoma | SK-MEL-28 melanoma | SK-MEL-5 melanoma | SN12C renal | SNB-19 CNS | SNB-75 CNS | SR leukemia | SW-620 colon | T-47D breast | U251 CNS | UACC-257 melanoma | UACC-62 melanoma | UO-31 renal

COC1OC(CBr)C(OC(c2ccccc2)(c2ccccc2)c2ccccc2)C(OC(c2ccccc2)(c2ccccc2)c2ccccc2)C1OC(c1ccccc1)(c1ccccc1)c1ccccc1 (stereo not drawn)
36.8 µM: UO-31 renal
60.7 µM: SK-OV-3 ovarian
> 100 µM: 786-0 renal | A498 renal | A549 NSCLC | ACHN renal | BT-549 breast | CAKI-1 renal | CCRF-CEM leukemia | COLO 205 colon | DU-145 prostate | HCC-2998 colon | HCT-116 colon | HCT-15 colon | HL-60(TB) leukemia | HOP-62 NSCLC | HT29 colon | IGROV1 ovarian | K-562 leukemia | KM12 colon | LOX IMVI melanoma | M14 melanoma | MALME-3M melanoma | MCF7 breast | MDA-MB-435 | MDA-N | MOLT-4 leukemia | NCI-H23 lung | NCI-H460 lung | NCI/ADR-RES ovarian | OVCAR-5 ovarian | OVCAR-8 ovarian | RPMI-8226 leukemia | RXF 393 renal | SF-268 CNS | SF-295 CNS | SK-MEL-28 melanoma | SK-MEL-5 melanoma | SN12C renal | SNB-19 CNS | SR leukemia | SW-620 colon | T-47D breast | TK-10 renal | UACC-257 melanoma | UACC-62 melanoma
28.6 µM: OVCAR-3 ovarian
40.8 µM: NCI-H522 lung
52.4 µM: HOP-92 NSCLC
89.4 µM: HS 578T breast
70.2 µM: EKVX NSCLC
96.3 µM: NCI-H226 lung
68.7 µM: SF-539 CNS
60.8 µM: OVCAR-4 ovarian

Source: PubChem BioAssay (NCI)
